Entries after “also recorded” stand apart in the source; their conditions may differ.
Columns and labels:
[1] = test system: phorbol ester-induced ear inflammation; design: method as in PMID 16621377; conditions: applied topically, mice; cited from earlier work
mPGES-1 = molecular target: T1, mPGES-1 (Homo sapiens, UniProt O14684); experiment: cell-free mPGES-1 activity assay (microsomes of IL-1β-stimulated A549 cells, PGE2 formation from PGH2); assay type: biochemical; conditions: for inhibition of mPGES-1 activity (in words): tested at / up to 10 μM
T1 construct: using microsomes of IL-1β-stimulated A549 cells as enzyme source; endogenous in cells; host or cells: A549 cells, IL-1β-induced, microsomal fraction
T1 sequence (O14684 1-152): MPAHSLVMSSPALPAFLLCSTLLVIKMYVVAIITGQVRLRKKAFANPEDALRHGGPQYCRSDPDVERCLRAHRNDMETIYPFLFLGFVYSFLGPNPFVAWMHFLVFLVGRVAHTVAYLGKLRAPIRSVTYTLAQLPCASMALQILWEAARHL

COX enzymes = test system: COX enzymes; design: method as in PMID 17945191, PMID 20188172, PMID 24354175; conditions: cited from earlier work

C=C(C)[C@@H]1CC[C@]2(C)CC[C@]3(C)[C@H](CC[C@@H]4[C@@]5(C)CC[C@H](OC(C)=O)[C@](C)(C(=O)O)[C@@H]5CC[C@]43C)[C@@H]12 [Compound 16, 3-O-acetyllupeolic acid]
inhibition of phorbol ester-induced ear inflammation [1]: inhibited

CC(C)[C@@H]1CC[C@]2(C)[C@H](CC=C3[C@@H]4[C@@H](C)[C@H](C)CC[C@]4(C)CC[C@]32C)[C@@]1(C)CCC(=O)O [Compound 12, 4,(23)-dihydroroburic acid]
inhibition of mPGES-1 activity (in words) (mPGES-1): failed to significantly inhibit; also recorded: not active

C=C(C)[C@@H]1CC[C@]2(C)[C@H](CC=C3[C@@H]4[C@@H](C)[C@H](C)CC[C@]4(C)CC[C@]32C)[C@@]1(C)CCC(=O)O [Compound 11, roburic acid]
inhibition of mPGES-1 activity (in words) (mPGES-1): failed to significantly inhibit; also recorded: not active
concentration range of COX enzyme inhibition (COX enzymes): two-digit micromolar range

CC(=O)O[C@@H]1CC[C@]2(C)C3=C(CC[C@H]2C1(C)C)[C@@]1(C)CC[C@@H]([C@H](CCC=C(C)C)C(=O)O)[C@]1(C)CC3 [Compound 6, 3α-acetoxy-8,24-dienetirucallic acid]
concentration range of COX enzyme inhibition (COX enzymes): two-digit micromolar range

C=C(C)[C@@H]1CC[C@]2(C)CC[C@]3(C)[C@H](CC[C@@H]4[C@@]5(C)CC[C@H](O)[C@](C)(C(=O)O)[C@@H]5CC[C@]43C)[C@@H]12 [Compound 15, Lupeolic acid]
inhibition of phorbol ester-induced ear inflammation [1]: inhibited

CC(C)[C@@H]1CC[C@]2(C)[C@H](CC=C3[C@@H]4CC(C)(C)CC[C@]4(C)CC[C@]32C)[C@@]1(C)CCC(=O)O [Compound 14, 4,(23)-dihydronyctanthic acid]
inhibition of mPGES-1 activity (in words) (mPGES-1): failed to significantly inhibit; also recorded: inactive

CC(C)=CCC[C@H](C(=O)O)[C@@H]1CC[C@]2(C)C3=C(CC[C@@]12C)[C@@]1(C)CC[C@@H](O)C(C)(C)[C@@H]1CC3 [Compound 5, 3-α-hydroxy-8,24-dienetirucallic acid]
inhibition at 10 µM (mPGES-1; at 10 μM): 96%

Source: publication PMC4074212, “Tetra- and Pentacyclic Triterpene Acids from the Ancient Anti-inflammatory Remedy Frankincense as Inhibitors of Microsomal Prostaglandin E2 Synthase-1” (Journal of Natural Products, 2014)
